Measurements: patent US5580869A, “1N substituted pyrazino[2,3-c]-1,2,6-thiadiazine 2,2-dioxides” (Prodesfarma, S.A., priority 1992, dated 1996)
Read-outs that look alike come from different tables or passages of the source.

Legend:
[1] = tested on: isolated guinea pig trachea; experiment: In vitro trachea relaxing activity (spontaneous tone in isolated trachea, method of Luduena); type: cell-based; conditions: Cavia porcellus, relative to maximum relaxation by noradrenaline 0.3 mcg/ml; for activity at 30 µg/mL: 30 mcg/ml
Description: The platelet antiaggregation activity was determined in vitro using platelet rich rabbit plasma and arachidonic acid (50 mcg/ml) as aggregation inducing agent. The results are given for tracheal relaxation as percentage inhibition of the tracheal tone relative to the maximum relaxation induced by noradrenaline (0.3 mcg/ml) and for the platelet aggregation as a percentage of the maximum effect observed with the proaggregation agent.

rats = experiment: Diuretic and saluretic activity (urine volume and electrolyte excretion over 6 h), technique of Lipschits et al.; type: in vivo; conditions: rat; for response vs control in vivo at 20 mg/kg: 20 mg/kg po; for response vs control in vivo at 25 mg/kg: 25 mg/kg po; for response vs control in vivo at 10 mg/kg: 10 mg/kg po; for response vs control in vivo at 40 mg/kg: 40 mg/kg po
Description: The synthesized compounds were, therefore, subjected a pharmacological screening to evaluate a possible diuretic and salt excreting activity. Thus, an acute dose of each of the products of synthesis (20 or 25 mg/kg) was administered to rats and the amount of urine and the excretion of electrolytes was measured, following the technique described by Lipschits et al., with certain modifications (J. Pharmacol. Exp.Ther. 1943-79; 97-110).
The volume (ml/kg/6 h), the pH and the excretion of sodium, potassium and chloride ions (mEq/kg/6 h) were determined on the urine quantitatively collected over 6 hours, using triamterene and hydrochlorothiazide as reference diuretics.

[2] = Mortality rate in the mouse after a single oral dose of 1600 mg/kg; conditions: in vivo, single oral dose 1600 mg/kg
Description: Likewise, to complete the superficial pharmacological profile, a check was made of the mortality rate in the mouse after oral administration of a single dose of 1600 mg/kg of each of the synthesized compounds (See Table 1).

[3] = (N) = not statistically significant vs control, read-out: Cl excretion, treated group/control group ratio
[4] = (N) = not statistically significant vs control, read-out: K excretion, treated group/control group ratio
[5] = (N) = not statistically significant vs control, read-out: Na excretion, treated group/control group ratio
[6] = (N) = not statistically significant vs control, read-out: Na/K
[7] = (N) = not statistically significant vs control, read-out: Volume urine, treated group/control group ratio
[8] = read-out: Cl excretion, treated group/control group ratio
[9] = read-out: K excretion, treated group/control group ratio
[10] = read-out: Na excretion, treated group/control group ratio
[11] = read-out: Volume urine, treated group/control group ratio

SMILES	activity at 30 µg/mL [1] [%]	response vs control in vivo at 20 mg/kg (rats; [3]) [%]	response vs control in vivo at 20 mg/kg (rats; [4]) [%]	response vs control in vivo at 20 mg/kg (rats; [5]) [%]	response vs control in vivo at 20 mg/kg (rats; [6]) [%]	response vs control in vivo at 20 mg/kg (rats; [7]) [%]	mortality [2] [%]	response vs control in vivo at 25 mg/kg (rats; [3]) [%]	response vs control in vivo at 25 mg/kg (rats; [4]) [%]	response vs control in vivo at 25 mg/kg (rats; [5]) [%]	response vs control in vivo at 25 mg/kg (rats; [7]) [%]	other results
CCc1nc2c(nc1C)C(NN)=NS(=O)(=O)N2CC	72	–	–	–	–	–	–	–	–	–	–	–
CCc1nc2c(nc1CC)N(CC)S(=O)(=O)N=C2N [1,6,7-triethyl, 4-amino-1,6,7-triethylpyrazino[2,3-c]-1,2,6-thiadiazine 2,2-dioxide]	–	216	127	198	156	133	50	–	–	–	–	–
CCc1nc2c(nc1C)N(CC)S(=O)(=O)N=C2N [1,6-diethyl-7-methyl, 4-amino-1,6-diethyl-7-methylpyrazino[2,3-c]-1,2,6-thiadiazine 2,2-dioxide]	95	89	91	56	62	104	–	–	–	–	–	–
CCc1nc2c(nc1C)C(NC)=NS(=O)(=O)N2CC [1,7-diethyl-4-(methylamino)-6-methyl, 1,7-diethyl-4-(methylamino)-6-methylpyrazino[2,3-c]-1,2,6-thiadiazine 2,2-dioxide]	75	424	155	344	156	139	–	–	–	–	–	–
CCc1nc2c(nc1C)C(N)=NS(=O)(=O)N2CC [1,7-diethyl-6-methyl, 4-amino-1,7-diethyl-6-methylpyrazino[2,3-c]-1,2,6-thiadiazine 2,2-dioxide]	–	–	–	–	–	–	37.5	787	179	823	197	response vs control in vivo at 25 mg/kg (rats; read-out: Na/K): 460%
Cc1nc2c(nc1C)N(CCO)S(=O)(=O)N=C2N [1-(2-hydroxyethyl)-6,7-dimethyl, 4-amino-1-(2-hydroxyethyl)-6,7-dimethylpyrazino[2,3-c]-1,2,6-thiadiazine 2,2-dioxide]	–	–	–	–	–	–	0	141	189	203	106	response vs control in vivo at 25 mg/kg (rats; read-out: Na/K): 107%
Cc1nc2c(nc1C)N(CCN1CCOCC1)S(=O)(=O)N=C2N [1-(2-morpholinoethyl)-6,7-dimethyl, 4-amino-1-(2-morpholinoethyl)-6,7-dimethylpyrazino[2,3-c]-1,2,6-thiadiazine 2,2-dioxide]	–	–	–	–	–	–	85	102	112	246	108	response vs control in vivo at 25 mg/kg (rats; read-out: Na/K): 220%
CCOC(=O)CN1c2nc(-c3ccccc3)cnc2C(N)=NS1(=O)=O [1-[(2-ethoxycarbonyl)-methyl]-7-phenyl, 4-amino-1-[(ethoxycarbonyl)methyl]-7-phenylpyrazino[2,3-c]-1,2,7-thiadiazine 2,2-dioxide]	72	–	–	–	–	–	–	–	–	–	–	–
CCN1c2nc(C(F)(F)F)c(C(F)(F)F)nc2C(N)=NS1(=O)=O [1-ethyl-6,7-bis(trifluoromethyl), 4-amino-1-ethyl-6,7-bis(trifluoromethyl)pyrazino[2,3-c]-1,2,6-thiadiazine 2,2-dioxide]	–	–	–	–	–	–	100	112	99	129	128	response vs control in vivo at 25 mg/kg (rats; read-out: Na/K): 130%
CCCN1c2nc(CC)c(C)nc2C(N)=NS1(=O)=O [1-ethyl-6-methyl-1-propyl, 4-amino-7-ethyl-6-methyl-1-propylpyrazino[2,3-c]-1,2,6-thiadiazine 2,2-dioxide]	–	530	172	502	292	154	40	–	–	–	–	–
CCCc1nc2c(nc1C)C(N)=NS(=O)(=O)N2CC [1-ethyl-6-methyl-7-propyl, 4-amino-1-ethyl-6-methyl-7-propylpyrazino[2,3-c]-1,2,6-thiadiazine 2,2-dioxide]	–	176	123	156	127	109	50	–	–	–	–	–
CCN1c2nc(-c3ccccc3)cnc2C(N)=NS1(=O)=O [1-ethyl-7-phenyl, 4-amino-1-ethyl-7-phenylpyrazino[2,3-c]-1,2,6-thiadiazine 2,2-dioxide]	95	136	140	131	94	121	–	–	–	–	–	–
Cc1nc2c(nc1C)N(CCN(C(C)C)C(C)C)S(=O)(=O)N=C2N [4-amino-1-[2-(N,N-diisopropylamino)ethyl]-6,7-dimethylpyrazino[2,3-c]-1,2,6-thiadiazine 2,2-dioxide]	–	–	–	–	–	–	62	156	94	193	84	response vs control in vivo at 25 mg/kg (rats; read-out: Na/K): 205%
CCCN1c2nc(C)c(C)nc2C(N)=NS1(=O)=O [6,7-dimethyl-1-propyl, 4-amino-6,7-dimethyl-1-propylpyrazino[2,3-c]-1,2,6-thiadiazine 2,2-dioxide]	–	593	197	609	309	175	60	–	–	–	–	–
CCN1c2nc(C)c(Br)nc2C(N)=NS1(=O)=O [6-bromo-1-ethyl-7-methyl, 4-amino-6-bromo-1-ethyl-7-methylpyrazino[2,3-c]-1,2,6-thiadiazine 2,2-dioxide]	88	–	–	–	–	–	–	–	–	–	–	–
CCc1nc2c(nc1C)C(N)=NS(=O)(=O)N2C [7-ethyl-1,6-dimethyl, 4-amino-7-ethyl-1,6-dimethylpyrazino[2,3-c]-1,2,6-thiadiazine 2,2-dioxide]	95	471	177	385	218	152	0	–	–	–	–	–
Nc1cc(-c2ccncc2)c[nH]c1=O [Amrinone, reference compound]	–	–	–	–	–	–	–	–	–	–	–	activity at 3 µg/mL ([1]; 3 mcg/ml): 65%
NS(=O)(=O)c1cc2c(cc1Cl)NCNS2(=O)=O [Hydrochlorothiazide, reference compound]	–	–	–	–	–	–	–	–	–	–	–	response vs control in vivo at 10 mg/kg (rats; [8]): 577%; response vs control in vivo at 10 mg/kg (rats; [9]): 217%; response vs control in vivo at 10 mg/kg (rats; [10]): 668%; response vs control in vivo at 10 mg/kg (rats; read-out: Na/K): 308%; response vs control in vivo at 10 mg/kg (rats; [11]): 166%; response vs control in vivo at 40 mg/kg (rats; [8]): 626%; response vs control in vivo at 40 mg/kg (rats; [9]): 265%; response vs control in vivo at 40 mg/kg (rats; [10]): 773%; response vs control in vivo at 40 mg/kg (rats; read-out: Na/K): 292%; response vs control in vivo at 40 mg/kg (rats; [11]): 179%
Nc1nc(N)c2nc(-c3ccccc3)c(N)nc2n1 [Triamterene, reference compound]	–	237	34	579	–	145	–	260	36	596	165	–
